For this assay, the target named is farnesyl transferase (Homo sapiens, UniProt P49354+P49356). Kind of assay: Farnesyl transferase inhibition, [3H]-farnesylation of biotinylated K-ras C-terminal peptide (SPA assay). It counts as biochemical. Conditions: 60 min at 37° C., mean of two IC50 values. The method, then: The farnesyl transferase activity was measured by the amount farnesylated of K-ras substrate or of substrate derived from the peptide corresponding to its C-terminal part, the farnesyl group being introduced by farnesyl pyrophosphate (FPP).
It was then brought into contact with PVT-streptavidin (Amersham)® beads and was quantified by proximity scintillation (SPA assay) between the tritium and the PVT beads, by virtue of the streptavidin/biotin interaction.
Experimentally, farnesyl transferase purified according to the appended protocol was diluted, for this assay, to a concentration such that a consumption of substrates of less than 30% was obtained.
The reaction, carried out in Optiplates 96° microtitration plates, was initiated by the enzyme and lasted sixty minutes at 37° C. It was stopped by addition of 150 μl of mixture of a blocking buffer at pH 4 composed of 0.2M H3 PO4, 1.5 mM MgCl2, 0.5% (w/v) BSA, 0.05% (w/v) sodium azide containing 200 μg of PVT-streptavidin beads.
After slow agitation for thirty minutes (in order to remove the chemiluminescence), the plates were read as [^3 H]CPM in a Top Count® (Packard) scintillation counter for microplates, where they were converted into [^3 H]DPM from a range of coloured agent attenuating the scintillation (quenching).
The percentages of inhibition were calculated with respect to an inhibitor-free control after subtraction from all the values of that of a blank which only contained the substrates and the buffer.
The IC50 values were calculated or measured, from the inhibitions obtained at nine different concentrations, with Enzfitter® or Grafit® software. The IC50 values which appear in the results are the mean of measurements and calculations of two IC50 values.

Setting [1] is: In vitro inhibitory activity (K-Ras) IC50, K-Ras substrate.
Where [2] appears, read: K-Ras substrate, read-out: In vitro inhibitory activity (K-Ras) IC50.

Each structure is given as a SMILES string. Read-outs that look alike come from different tables or passages of the source.

Turning to `C=C(C(=O)N1C[C@H]2[C@@]3(c4ccc(C)s4)CC[C@@H](c4ccccc43)[C@]2(C(=O)O)C1)c1ccccc1OC` (racemic) [Example 48, (3aRS,4SR,9SR,9aRS)-4,9-ethano-2-[2-(2-methoxyphenyl)propenoyl]-9-(5-methyl-2-thienyl)-2,3,3a,4,9,9a-hexahydro-1H-benzo[f]isoindole-3a-carboxylic Acid], the midpoint of inhibition under setting [1], the IC50, lay at 0.095 µM.
For `C=C(C(=O)N1C[C@@H]2[C@]3(c4ccc(Br)cc4)CC[C@@H](c4ccccc43)[C@]2(C(=O)OC)C1)c1ccccc1OC` (racemic) [Example 49, methyl (3aRS,4SR,9SR,9aRS)-9-(4-bromophenyl)-4,9-ethano-2-[2-(2-methoxyphenyl)-propenoyl]-2,3,3a,4,9,9a-hexahydro-1H-benzo[f]isoindole-3a-carboxylate], under setting [2], the IC50 (as a rule, the concentration that gives 50% inhibition) came out at 0.229 µM.
On the same count and under the same terms, as for `C=C(C(=O)N1C[C@@H]2[C@]3(c4ccc(Br)cc4)CC[C@@H](c4ccccc43)[C@]2(C(=O)O)C1)c1ccccc1OC` (racemic) [Example 50, (3aRS,4SR,9SR,9aRS)-9-(4-bromophenyl)-4,9-ethano-2-[2-(2-methoxyphenyl)propenoyl]-2,3,3a,4,9,9a-hexahydro-1H-benzo[f]isoindole-3a-carboxylic Acid], the figure is 0.059 µM.
On the same count and under the same terms, as for `C=C(C(=O)N1C[C@@H]2[C@]3(c4ccc(Cl)c(Cl)c4)CC[C@@H](c4ccccc43)[C@]2(C(=O)O)C1)c1ccccc1OC` (racemic) [Example 51, (3aRS,4SR,9SR,9aRS)-9-(3,4-dichlorophenyl)-4,9-ethano-2-[2-(2-methoxyphenyl)-propenoyl]-2,3,3a,4,9,9a-hexahydro-1H-benzo[f]isoindole-3a-carboxylic Acid], the figure is 0.068 µM.
On the same count and under the same terms, as for `C=C(C(=O)N1C[C@@H]2[C@]3(c4ccc(Cl)cc4)CC[C@@H](c4ccccc43)[C@]2(C(=O)OC)C1)c1ccccc1OC` (racemic) [Example 52, methyl (3aRS,4SR,9SR,9aRS)-9-(4-chlorophenyl)-4,9-ethano-2-[2-(2-methoxyphenyl)-propenoyl]-2,3,3a,4,9,9a-hexahydro-1H-benzo[f]isoindole-3a-carboxylate], the figure is 0.181 µM; as for `C=C(C(=O)N1C[C@@H]2[C@]3(c4ccc(Cl)cc4)CC[C@@H](c4ccccc43)[C@]2(C(=O)O)C1)c1ccccc1OC` (racemic) [Example 53, (3aRS,4SR,9SR,9aRS)-9-(4-chlorophenyl)-4,9-ethano-2-[2-(2-methoxyphenyl)propenoyl]-2,3,3a,4,9,9a-hexahydro-1H-benzo[f]isoindole-3a-carboxylic Acid], 0.02 µM; as for `C=C(C(=O)N1C[C@@H]2[C@]3(c4ccc(OC)c(C)c4)CC[C@@H](c4ccccc43)[C@]2(C(=O)O)C1)c1ccccc1OC` (racemic) [Example 54, (3aRS,4SR,9SR,9aRS)-4,9-ethano-2-[2-(2-methoxyphenyl)propenoyl]-9-(4-methoxy-3-methylphenyl)-2,3,3a,4,9,9a-hexahydro-1H-benzo[f]isoindole-3a-carboxylic Acid], 0.078 µM.
With `C=C(C(=O)N1C[C@@H]2[C@@]3(c4c[nH]c5ccccc45)CC[C@@H](c4ccccc43)[C@]2(C(=O)OC)C1)c1ccccc1OC` (racemic) [Example 55, methyl (3aRS,4SR,9SR,9aRS)-4,9-ethano-2-[2-(2-methoxyphenyl)propenoyl]-9-(3-indolyl)-2,3,3a,4,9,9a-hexahydro-1H-benzo[f]isoindole-3a-carboxylate], the IC50 under setting [2] came to 0.558 µM.
On the same count and under the same terms, next, `COc1ccccc1CC(=O)N1C[C@@H]2[C@]3(c4ccc(C(C)C)cc4)CC[C@@H](c4ccccc43)[C@]2(C(=O)O)C1` (racemic) [Example 56, (3aRS,4SR,9SR,9aRS)-4,9-ethano-9-(4-isopropylphenyl)-2-[(2-methoxyphenyl)acetyl]-2,3,3a,4,9,9a-hexahydro-1H-benzo[f]isoindole-3a-carboxylic Acid]: 0.589 µM; `C=C(C(=O)N1C[C@@H]2[C@]3(c4ccc(C(C)C)cc4)CC[C@@H](c4ccccc43)[C@]2(C(=O)O)C1)c1ccccc1OC` (racemic) [Example 57, (3aRS,4SR,9SR,9aRS)-4,9-ethano-9-(4-isopropylphenyl)-2-[2-(2-methoxyphenyl)propenoyl]-2,3,3a,4,9,9a-hexahydro-1H-benzo[f]isoindole-3a-carboxylic Acid]: 0.28 µM.
As to `C=C(C(=O)N1C[C@@H]2[C@@]3(c4ccsc4)CC[C@@H](c4ccccc43)[C@]2(C(=O)O)C1)c1ccccc1OC` (racemic) [Example 58, (3aRS,4SR,9SR,9aRS)-4,9-ethano-2-[2-(2-methoxyphenyl)propenoyl]-9-(3-thienyl)-2,3,3a,4,9,9a-hexahydro-1H-benzo[f]isoindole-3a-carboxylic Acid], the IC50 under setting [1] was determined as 0.138 µM.
In the case of `C=C(C(=O)N1C[C@@H]2[C@]3(c4ccc(CC)cc4)CC[C@@H](c4ccccc43)[C@]2(C(=O)OC)C1)c1ccccc1OC` (racemic) [Example 59, methyl (3aRS,4SR,9SR,9aRS)-4,9-ethano-9-(4-ethylphenyl)-2-[2-(2-methoxyphenyl)propenoyl]-2,3,3a,4,9,9a-hexahydro-1H-benzo[f]isoindole-3a-carboxylate], the IC50 under setting [2] was found to be 0.408 µM.
Take `C=C(C(=O)N1C[C@@H]2[C@]3(c4ccc(CC)cc4)CC[C@@H](c4ccccc43)[C@]2(C(=O)O)C1)c1ccccc1OC` (racemic) [Example 60, (3aRS,4SR,9SR,9aRS)-4,9-ethano-9-(4-ethylphenyl)-2-[2-(2-methoxyphenyl)propenoyl]-2,3,3a,4,9,9a-hexahydro-1H-benzo[f]isoindole-3a-carboxylic Acid]: the IC50 under setting [2] was determined as 0.124 µM.
On the same count and under the same terms, next, `C=C(C(=O)N1C[C@@H]2[C@]3(c4ccc5c(c4)CCO5)CC[C@@H](c4ccccc43)[C@]2(C(=O)OC)C1)c1ccccc1OC` (racemic) [Example 61, methyl (3aRS,4SR,9SR,9aRS)-9-(2,3-dihydrobenzofuran-5-yl)-4,9-ethano-2-[2-(2-methoxyphenyl)propenoyl]-2,3,3a,4,9,9a-hexahydro-1H-benzo[f]isoindole-3a-carboxylate]: 0.178 µM.
With `C=C(C(=O)N1C[C@@H]2[C@]3(c4ccc5c(c4)CCO5)CC[C@@H](c4ccccc43)[C@]2(C(=O)O)C1)c1ccccc1OC` (racemic) [Example 62, (3aRS,4SR,9SR,9aRS)-9-(2,3-dihydrobenzofuran-5-yl)-4,9-ethano-2-[2-(2-methoxyphenyl)propenoyl]-2,3,3a,4,9,9a-hexahydro-1H-benzo[f]isoindole-3a-carboxylic Acid], the IC50 under setting [2] came to 0.036 µM.
Still for that read-out and setting: next, `C=C(C(=O)N1C[C@@H]2[C@]3(c4ccc(F)cc4)CC[C@@H](c4ccccc43)[C@]2(C(=O)OC)C1)c1ccccc1OC` (racemic) [Example 64, methyl (3aRS,4SR,9SR,9aRS)-4,9-ethano-9-(4-fluorophenyl)-2-[2-(2-methoxyphenyl)propenoyl]-2,3,3a,4,9,9a-hexahydro-1H-benzo[f]isoindole-3a-carboxylate]: 0.325 µM; `C=C(C(=O)N1C[C@@H]2[C@]3(c4ccc(F)cc4)CC[C@@H](c4ccccc43)[C@]2(C(=O)O)C1)c1ccccc1OC` (racemic) [Example 65, (3aRS,4SR,9SR,9aRS)-4,9-ethano-9-(4-fluorophenyl)-2-[2-(2-methoxyphenyl)propenoyl]-2,3,3a,4,9,9a-hexahydro-1H-benzo[f]isoindole-3a-carboxylic acid]: 0.04 µM; `C=C(C(=O)N1C[C@@H]2[C@]3(c4ccc(Cl)c(F)c4)CC[C@@H](c4ccccc43)[C@]2(C(=O)OC)C1)c1ccccc1OC` (racemic) [Example 66, methyl (3aRS,4SR,9SR,9aRS)-9-(4-chloro-3-fluorophenyl)-4,9-ethano-2-[2-(2-methoxyphenyl)-propenoyl]-2,3,3a,4,9,9a-hexahydro-1H-benzo[f]isoindole-3a-carboxylate]: 0.379 µM.
Same read-out and setting: next, `C=C(C(=O)N1C[C@@H]2[C@]3(c4ccc(Cl)c(F)c4)CC[C@@H](c4ccccc43)[C@]2(C(=O)O)C1)c1ccccc1OC` (racemic) [Example 67, (3aRS,4SR,9SR,9aRS)-9-(4-chloro-3-fluorophenyl)-4,9-ethano-2-[2-(2-methoxyphenyl)propenoyl]-2,3,3a,4,9,9a-hexahydro-1H-benzo[f]isoindole-3a-carboxylic Acid]: 0.101 µM; `C=C(C(=O)N1C[C@@H]2[C@]3(c4cccc(C)c4)CC[C@@H](c4ccccc43)[C@]2(C(=O)OC)C1)c1ccccc1OC` (racemic) [Example 68, methyl (3aRS,4SR,9SR,9aRS)-4,9-ethano-2-[2-(2-methoxyphenyl)propenoyl]-9-(3-methylphenyl)-2,3,3a,4,9,9a-hexahydro-1H-benzo[f]isoindole-3a-carboxylate]: 0.431 µM.
The same measure, in the same setting: next, `C=C(C(=O)N1C[C@@H]2[C@]3(c4cccc(C)c4)CC[C@@H](c4ccccc43)[C@]2(C(=O)O)C1)c1ccccc1OC` (racemic) [Example 69, (3aRS,4SR,9SR,9aRS)-4,9-ethano-2-[2-(2-methoxyphenyl)propenoyl]-9-(3-methylphenyl)-2,3,3a,4,9,9a-hexahydro-1H-benzo[f]isoindole-3a-carboxylic Acid]: 0.053 µM.

The record behind these values is patent US6218406A, “Farnesyl transferase inhibitors, their preparation, the pharmaceutical compositions which contain them and their use in the preparation of medicaments” (Aventis Pharma S.A., priority 1996, dated 2001).
